Measured values reported in patent US11464782B2, “Method of treating pain or interstitial cystitis using indole compound” (Japan Tobacco Inc., priority 2018, dated 2022).
Read-outs that look alike come from different tables or passages of the source.

Experiment: Trough plasma concentrations of Compound A in the human clinical study
Assay type: in vivo
Details: human, plasma, oral, human plasma
Experimental: Compound A was evaluated in a multicenter, randomized, double-blind, placebo-controlled, parallel-group study in subjects with active rheumatoid arthritis. Subjects were randomized to receive orally placebo or an amount of monohydrochloride Compound A sufficient to provide 50 mg, 100 mg, 150 mg, or 200 mg of free form, once daily for 12 weeks.
In the human clinical study described in Example 3, blood samples were collected from subjects prior to dosing at weeks 2, 4, 8, and 12 for the quantification of plasma Compound A levels.

[1] = 100 mg, 100 mg QD, BLQ (<2.00 ng/mL) set to 0, read-out: Trough Plasma Concentrations, Min-Max
[2] = 100 mg, 100 mg QD, read-out: Trough Plasma Concentrations, Mean (SD)
[3] = 100 mg, 100 mg QD, read-out: Trough Plasma Concentrations, Median
[4] = 150 mg, 150 mg QD, BLQ (<2.00 ng/mL) set to 0, read-out: Trough Plasma Concentrations, Min-Max
[5] = 150 mg, 150 mg QD, read-out: Trough Plasma Concentrations, Mean (SD)
[6] = 150 mg, 150 mg QD, read-out: Trough Plasma Concentrations, Median
[7] = 200 mg, 200 mg QD, BLQ (<2.00 ng/mL) set to 0, read-out: Trough Plasma Concentrations, Min-Max
[8] = 200 mg, 200 mg QD, read-out: Trough Plasma Concentrations, Mean (SD)
[9] = 200 mg, 200 mg QD, read-out: Trough Plasma Concentrations, Median

concentration at 2 week [1]: 0 to 825 ng/mL
concentration at 2 week [2]: 204 ng/mL
concentration at 2 week [3]: 191 ng/mL
concentration at 4 week [1]: 0 to 650 ng/mL
concentration at 4 week [2]: 216 ng/mL
concentration at 4 week [3]: 215 ng/mL
concentration at 8 week [1]: 0 to 785 ng/mL
concentration at 8 week [2]: 228 ng/mL
concentration at 8 week [3]: 194 ng/mL
concentration at 12 week [1]: 0 to 728 ng/mL
concentration at 12 week [2]: 178 ng/mL
concentration at 12 week [3]: 175 ng/mL
concentration at 2 week [4]: 1.47 to 1110 ng/mL
concentration at 2 week [5]: 335 ng/mL
concentration at 2 week [6]: 300 ng/mL
concentration at 4 week [4]: 0 to 748 ng/mL
concentration at 4 week [5]: 309 ng/mL
concentration at 4 week [6]: 277 ng/mL
concentration at 8 week [4]: 0 to 743 ng/mL
concentration at 8 week [5]: 272 ng/mL
concentration at 8 week [6]: 277 ng/mL
concentration at 12 week [4]: 0 to 992 ng/mL
concentration at 12 week [5]: 312 ng/mL
concentration at 12 week [6]: 246 ng/mL
concentration at 2 week [7]: 5.01 to 2210 ng/mL
concentration at 2 week [8]: 521 ng/mL
concentration at 2 week [9]: 436 ng/mL
concentration at 4 week [7]: 0 to 1570 ng/mL
concentration at 4 week [8]: 450 ng/mL
concentration at 4 week [9]: 402 ng/mL
concentration at 8 week [7]: 0 to 1660 ng/mL
concentration at 8 week [8]: 402 ng/mL
concentration at 8 week [9]: 392 ng/mL
concentration at 12 week [7]: 0 to 1170 ng/mL
concentration at 12 week [8]: 354 ng/mL
concentration at 12 week [9]: 323 ng/mL
Compound: C[C@@H](C(=O)N(C)c1ccc2cc(-c3n[nH]c4c3CCC(C)(C)C4)[nH]c2c1)N1CCOCC1 [Compound A, N-[2-(6,6-dimethyl-4,5,6,7-tetrahydro-1H-indazol-3-yl)-1H-indol-6-yl]-N-methyl-(2S)-2-(morpholin-4-yl)propanamide]
